One block for each compound: values may come before it.
What was measured:
Homo sapiens [1] = species on record: Homo sapiens; assay: Selectivity ratio of IC50 for displacement of [125I]IL-8 from CXCR1 (unknown origin) to IC50 for displacement of [125I]IL-8 from CXCR2 (unknown origin)
[2] = molecular target: T1, C-X-C chemokine receptor type 2 (Homo sapiens) (UniProt P25025); assay: Displacement of [125I]-IL-8 from human CXCR2 expressed in CHO cells membrane at 20 uM relative to control; assay type: cell membranes
T1 sequence (whole entry): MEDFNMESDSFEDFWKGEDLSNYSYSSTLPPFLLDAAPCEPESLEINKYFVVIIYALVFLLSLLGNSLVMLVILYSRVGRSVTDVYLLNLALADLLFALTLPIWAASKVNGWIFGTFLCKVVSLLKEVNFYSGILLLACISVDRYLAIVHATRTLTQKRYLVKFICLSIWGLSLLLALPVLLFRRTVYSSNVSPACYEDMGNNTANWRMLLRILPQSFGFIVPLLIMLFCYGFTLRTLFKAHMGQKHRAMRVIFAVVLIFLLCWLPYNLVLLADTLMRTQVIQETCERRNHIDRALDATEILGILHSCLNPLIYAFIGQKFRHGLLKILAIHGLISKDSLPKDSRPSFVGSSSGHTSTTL

[3] = molecular target: T2, C-X-C chemokine receptor type 2 (Homo sapiens, UniProt P25025); assay: Displacement of [125I]IL-8 from human CXCR2 expressed in CHO cells; assay type: cell-based
T2 sequence (P25025 whole entry): T1 sequence (whole entry)

[4] = molecular target: T2, C-X-C chemokine receptor type 2; assay: Antagonist activity at GFP-tagged CXCR2 (unknown origin) expressed in 293T cells assessed as suppression of IL-8-induced inhibition of forskolin-stimulated cAMP accumulation preincubated for 10 mins followed by IL-8 addition and measured after 10 mins by cAMP assay; assay type: functional, cell-based
A375-SM [5] = assay: Antitumor activity against human A375SM cells xenografted in athymic nude mice assessed as reduction in tumor volume at 100 mg/kg, po for 21 days; assay type: functional
A375-SM [6] = assay: Antitumor activity against human A375SM cells xenografted in athymic nude mice assessed as reduction in blood vessels formation at 100 mg/kg, po for 21 days and measured on day 50 by immunohistochemistry relative to control; assay type: functional; set-up: scale not given: the % may be the effect or the level left
[7] = molecular target: T2, C-X-C chemokine receptor type 2; assay: Antagonist activity at CXCR2 (unknown origin) expressed in human U2OS cells cp-expressing betaarrestin-2/TEV protease and beta lactamase assessed as effect on beta-arrestin2 recruitment preincubated for 30 mins followed by IL-8 addition and further incubated for 5 hrs subsequently adding CCF4-AM staining and measured after 2 hrs by Tango assay; assay type: cell-based
SK-OV-3 = assay: Antitumor activity against human SKOV3 cells xenografted in athymic Nu/Nu mouse assessed as reduction in tumor volume at 10 mg/kg/day, ip co-treated with sorafenib 30 mg/kg, po relative to sorafenib alone; assay type: functional; set-up: scale not given: the % may be the effect or the level left
[8] = molecular target: T2, C-X-C chemokine receptor type 2; assay: Antagonist activity at CXCR2 (unknown origin)
[9] = molecular target: T2, C-X-C chemokine receptor type 2; assay: Antagonist activity at CXCR2 in human neutrophils assessed as reduction in GROalpha stimulated intracellular calcium mobilisation by FLIPR assay; assay type: functional, cell-based
[10] = Oral bioavailability in rat; assay type: ADME, organism-based; details: in vivo
[11] = molecular target: T2, C-X-C chemokine receptor type 2; assay: Displacement of [125I]IL-8 from CXCR2 in human neutrophils incubated for 3 hrs by gamma counting method
[12] = molecular target: T3, C-X-C chemokine receptor type 1 (Homo sapiens, UniProt P25024); assay: Displacement of [125I]IL-8 from CXCR1 in human neutrophils incubated for 3 hrs by gamma counting method
T3 sequence (P25024 whole entry): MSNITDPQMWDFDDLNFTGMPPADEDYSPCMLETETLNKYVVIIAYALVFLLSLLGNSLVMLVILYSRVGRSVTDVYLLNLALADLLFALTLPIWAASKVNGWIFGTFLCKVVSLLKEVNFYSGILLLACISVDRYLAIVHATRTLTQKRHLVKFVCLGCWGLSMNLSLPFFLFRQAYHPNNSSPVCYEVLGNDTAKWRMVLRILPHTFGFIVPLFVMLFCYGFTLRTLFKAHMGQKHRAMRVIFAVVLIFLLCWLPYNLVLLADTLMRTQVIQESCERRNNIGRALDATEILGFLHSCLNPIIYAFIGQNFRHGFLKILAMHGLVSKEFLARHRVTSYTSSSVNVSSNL

[13] = molecular target: T3, C-X-C chemokine receptor type 1; assay: Antagonist activity at CXCR1 (unknown origin) stably expressed in HEK293 cells co-expressing Galpha16 assessed as reduction in IL-8-induced intracellular calcium change incubated for 10 mins by Fluo-4AM dye based fluorescence assay; assay type: functional, cell-based
Homo sapiens [14] = species on record: Homo sapiens; assay: Selectivity ratio of IC50 for antagonist activity at CXCR1 (unknown origin) stably expressed in HEK293 cells co-expressing Galpha16 to antagonist activity at CXCR2 (unknown origin) stably expressed in HEK293 cells co-expressing Galpha16; assay type: cell-based
[15] = molecular target: T2, C-X-C chemokine receptor type 2; assay: Antagonist activity at CXCR2 (unknown origin) stably expressed in HEK293 cells co-expressing Galpha16 assessed as reduction in IL-8-induced intracellular calcium change incubated for 10 mins by Fluo-4AM dye based fluorescence assay; assay type: functional, cell-based
[16] = molecular target: T2, C-X-C chemokine receptor type 2; assay: Antagonist activity at CXCR2 in human U2OS cells assessed as effect on beta-arrestin2 recruitment by CCF4-AM staining based Tango assay; assay type: cell-based

SMILES: N#Cc1ccc(NC(=O)Nc2ccccc2Br)c(O)c1Br
Ratio IC50 (Homo sapiens [1]): 57

SMILES: CS(=O)(=O)c1ccc(C(=O)Nc2ccc(F)cc2)c[n+]1[O-]
inhibition [2]: 93%

SMILES: CC[C@@H](Nc1c(Nc2ccnc(C(=O)N(C)C)c2O)c(=O)c1=O)c1ccc(C)o1
IC50 [3]: 0.002 µM

SMILES: CC[C@@H](Nc1c(Nc2cccc(C(=O)N(C)C)c2O)c(=O)c1=O)c1ccc(C)o1 [NAVARIXIN ANHYDROUS]
fold change (FC) (A375-SM [5]): 4.5 | Activity (A375-SM [6]): 45%

SMILES: CC(=O)c1c(C)oc2c1cc(NS(=O)(=O)c1ccc(C(C)(C)C)cc1)c1ccccc12
IC50 [7]: 7.6 µM

SMILES: O=C(Nc1ccc([N+](=O)[O-])cc1O)Nc1ccccc1Br
Activity (SK-OV-3): 42%

SMILES: O=C(Nc1ccccc1)Nc1ccc([N+](=O)[O-])cc1O
Ratio IC50 (Homo sapiens [1]): 433

SMILES: CCN(CC)Nc1c(Nc2cccc(C(=O)N(C)C)c2O)c(=O)c1=O
IC50 [8]: 0.00012 µM

The next lines start with results.

IC50 [4]: 7.8 µM
SMILES: CCSc1nnc2n(-c3ccccc3)c(=O)c3c4c(sc3n12)CCC[C@H]4C

IC50 [7]: 2.5 µM
SMILES: C[C@@H](NC1=C(C(=O)Nc2ccc(Cl)c(C(F)(F)F)c2)C(=O)CC(C)(C)C1)c1ccccc1

IC50 [8]: 0.017 µM
SMILES: Cc1ccc([C@H](Nc2c(Nc3cccc(S(=O)(=O)N4CCN(C)CC4)c3O)c(=O)c2=O)[C@H]2CCCS2)o1

IC50 [9]: 0.048 µM | bioavailability [10]: 61%
SMILES: Sc1nc(-c2ccccc2Cl)nn1Cc1cccc(Cl)c1

IC50 [11]: 0.03 µM | IC50 [12]: 0.23 µM
SMILES: CCN(CC)CCCCNc1nc2cc(Cl)c(Cl)cc2nc1-c1cc2ccccc2o1

IC50 [13]: 2.9 µM | IC50 [15]: 0.048 µM
SMILES: O=C(c1cccc(Nc2c(NC3C[C@@H]4CC[C@H]3C4)c(=O)c2=O)c1O)N1CCCC1 (stereo not given in full)
Ratio IC50 (Homo sapiens [14]): 60

IC50 [16]: 6.3 µM
SMILES: CC1(C)CC(=O)C(C(=S)Nc2ccccc2)=C(NCc2ccccc2)C1
